Data on one molecule can be found in US20240415828A1, “TLR7 AGONIST AND COMBINATIONS FOR CANCER TREATMENT” (BIONTECH SE, priority 2021, published 2024).

For series [1], the system named is CT26 colon carcinoma cells. Nature of the series: CT26 tumor model, BNT411 alone (Example 3). Type of series: in vivo, mouse. As for the experimental part:
FIG. 4. Anti-tumoral efficacy of BNT411 alone in a tumor mouse model. Mice (n=12 or 13 per group) subcutaneously inoculated with 5×10^5 CT26 colon carcinoma cells were used as tumor mouse model. BNT411 was administered i.v. at a dose level of 3 mg/kg eight times with 4 to 5 days interval (on days 14, 19, 23, 28, 33, 37, 42, and 47). A control group (n=13) received vehicle alone. Adaptive immunity was evaluated by analyzing gp70-antigen-specific T cell populations in blood and splenocytes 3 and 5 weeks after the first study drug administration. (A) Dosing schedule. (B) Graph showing the tumor volumes vs. days after inoculation. Group mean tumor volumes for all live animals are shown. Additionally, tumor volumes of animals that were euthanized due to tumor load were carried forward for as long as they were larger than the group median tumor volume (SEM: standard error of the mean; LOCF: last observation carried forward values).
Serum levels of IFNα were measured by sandwich ELISA (Pbl Assay Systems) according to manufacturer's instructions.
BALB/c mice were inoculated s.c. with 2.5×10^5−5×10^5 CT26-WT into the flank, respectively. Once tumors reached palpable sizes, mice were randomly divided into treatment and control groups. Tumor volume was measured unblinded with a caliper and calculated using the formula (a×b^2)/2 (a being the largest and b being the smallest diameter of the tumor). Tumor growth was documented as mean tumor size with standard error disregarding single distant outliers. Treatment was initiated after 7-10 d with tumors having reached an average volume of about 10 mm^3. 3 mg/kg (75 μg/mouse; BALB/c mice) BNT411 was administered by i.v. injection to the retro-orbital venous plexus. Control groups received an equal volume of 100 μl saline vehicle (0.1% 1 M HCl, 0.1% 1 M NaOH, 99.8% isotonic NaCl solution pH 5.63).
Eight doses of BNT411 were administered i.v. at a dose level of 3 mg/kg eight times with 4 to 5 days interval (on days 14, 19, 23, 28, 33, 37, 42, and 47); cf., FIG. 4A. […] A control group (n=13) received vehicle alone. Adaptive immunity was evaluated by analyzing gp70-antigen-specific T cell populations in blood and splenocytes 3 and 5 weeks after the first study drug administration. Gp70 is the immune dominant CD8^+ T-cell recognized antigen of the CT26 tumor model.

Series [2] concerns CT26 colon carcinoma cells. Nature of the series: CT26 tumor model, BNT411 alone and with anti-PD-L1 antibody (Example 5). Type of series: in vivo. The note with it: no adverse clinical effects, higher toxicities, or body weight loss. The method, then:
FIG. 6. Anti-tumoral efficacy of BNT411 alone and in combination with an anti-PD-L1 antibody in a tumor mouse model. Mice (n=10 per group) subcutaneously inoculated with 5×10^5 CT26 colon carcinoma cells were used as tumor mouse model. The anti-PD-L1 antibody anti-PD-L1-mIgG1e3 was administered intraperitoneally (i.p.) at a dose level of 200 μg per animal. BNT411 was administered i.v. at a dose level of 3 mg/kg. All treatments were delivered once every five days for a total of six doses. Body weight changes and tumor growth were assessed on study day 21 when there were at least nine animals alive in each group. (A) Dosing schedule. (B) Graph showing the tumor volumes vs. study day. Mean tumor volume±SEM (mm^3) is depicted for each treatment. Last observations were carried forward until day 35 when only the animal who cleared the tumor was left. […]
BALB/c mice were inoculated s.c. with 2.5×10^5−5×10^5 CT26-WT into the flank, respectively. […] Tumor volume was measured unblinded with a caliper and calculated using the formula (a×b^2)/2 (a being the largest and b being the smallest diameter of the tumor). […]
Four groups of 10 animals were inoculated with 1×10^6 CT26 cells per animal into the dorsal right flank (day 0). […] Body weight changes and tumor growth were assessed on study day 21 when there were at least nine animals alive in each group. […]

On to `COCCc1nc2c(N)nc3ccccc3c2n1CCCCN(C(C)=O)C1CCOCC1` [BNT411], for which, in series [1] (3 mg/kg i.v. eight times, day 35), the “tumor growth inhibition, test/control value” was determined as 43.3%. In series [1] (3 mg/kg i.v., day 49, last day of the experiment), the animals still alive was 8 of 13. Further, the “increase in blood IFNα levels compared with the control group” value in series [1] (1 h after the first dosing, 3 mg/kg i.v.) was 50 fold. Moreover, the “frequency of gp70+ T-cells in blood” value in series [1] (day 35) amounted to 8.72%. Further, the “frequency of gp70+ T-cells in splenocytes” value in series [1] (day 50) was determined as 0.76%. In addition, in series [1] (serum, day 19), the “blood parameters (alanine transaminase, aspartate transaminase, creatine kinase, glutamate dehydrogenase, lactate dehydrogenase, bilirubin) vs control group” value is reported as “comparable”. Further, in series [2], the tolerability throughout treatment entry is given as “well tolerated”.
